“Also recorded” adds a separate entry of the source.
Experiments:
[1] = target: T1, HSA (Homo sapiens, UniProt P02768); test: Competition of NBD C12 (17) on HSA with ibuprofen and warfarin; assay type: binding; conditions: from competition with warfarin and ibuprofen
T1 construct: purchased Sigma Aldrich A1887
Procedure: In analogy to the experiments measuring the fluorescence of the fluorescence-labelled derivatives without HSA above, the solutions were pipetted from the 96 well microplate into a 384 well microplate. […] The fluorescence measurement without a wavelength scan was carried out in analogy to the above-referenced experiment.

[2] = target: T1, HSA; test: Fluorescence of NBD and dansyl dyes with increasing HSA (FRET effect, emission maxima); assay type: binding
Procedure: Absorption and fluorescence of fluorescence-labelled derivatives and HSA were carried out in a Varioskan™ microplate reader (Thermo Electron Corporation). 96 well (Costar, half area, flat bottom) microplates were used for absorption measurements and 384 well (Greiner Bio One, small volume, black) microplates from Greiner Bio One were used for fluorescence measurements. All measurements were carried out at pH 7.4 and room temperature.
5.00 ml of a 400 μM solution were prepared from the HSA stock solution. From this solution a geometric dilution series with 7 dilution steps, a dilution factor of 0.5 and a final volume of each concentration of 2.5 ml were prepared.
Defined concentrations of the fluorescence-labelled compounds were selected from the preceding experiment without HSA above and double-concentrated solutions thereof were prepared to take into account the later 1:1 dilution. For each fluorescence-labelled compound (12-17; 19-25) 1.00 ml of these double-concentrations was prepared. 50 μl of the dye solutions were introduced into a 96 well microplate and 50 μl each of the HSA dilution series were added. By mixing the solutions the concentrations of dye derivatives and the HSA solution were halved. The measurements of the absorption and fluorescence were carried out in analogy to the above experimental procedure without HSA.
In analogy to the absorption measurement the effect of HSA on the fluorescence of the dyes (12-17; 19-25) was determined. The same concentrations of NBD and dansyl dyes and the same concentration range for HSA as already described above were used.

[3] = log D7.4 determination by RP-HPLC, similar to the water/octanol partition coefficient method; assay type: physicochemical; conditions: pH 7.4, RP-HPLC C18, range −1 to +6
Procedure: log D7.4 values were determined by a method similar to the partition coefficient method in a water/octanol mixture and were carried out on an RP-HPLC from Waters Alliance (2795) having a C18 column (2×20 mm) with a gradient of morpholinesulfonic acid buffer (pH 7.4) and acetonitrile. The range was between −1 ([…]) to +6 (lipophilic).

[4] = target: T2, amino acid Trp214 of HSA (Homo sapiens, UniProt P02768); test: FRET interactions of NBD C12 (17) with Trp214 of HSA; assay type: binding; conditions: for tryptophan emission intensity of HSA after addition of the dye: emission 330 nm, without dye 170/171 FI
T2 construct: purchased Sigma Aldrich A1887
T2 sequence (P02768 25-609): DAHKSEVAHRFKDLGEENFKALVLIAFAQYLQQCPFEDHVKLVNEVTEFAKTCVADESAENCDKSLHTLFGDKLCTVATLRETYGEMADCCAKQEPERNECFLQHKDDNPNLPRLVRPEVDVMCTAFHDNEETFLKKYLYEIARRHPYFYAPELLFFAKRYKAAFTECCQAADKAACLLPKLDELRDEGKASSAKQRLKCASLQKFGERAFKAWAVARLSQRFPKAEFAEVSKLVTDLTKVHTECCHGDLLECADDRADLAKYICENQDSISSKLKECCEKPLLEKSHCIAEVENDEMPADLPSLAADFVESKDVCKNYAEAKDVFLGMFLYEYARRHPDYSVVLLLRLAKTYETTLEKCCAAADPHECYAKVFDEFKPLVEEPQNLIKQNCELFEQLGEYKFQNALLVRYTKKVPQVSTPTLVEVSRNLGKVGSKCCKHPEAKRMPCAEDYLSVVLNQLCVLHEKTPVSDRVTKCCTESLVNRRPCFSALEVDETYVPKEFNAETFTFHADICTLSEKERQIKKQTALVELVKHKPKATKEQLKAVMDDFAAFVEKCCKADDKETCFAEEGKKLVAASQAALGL
Procedure: For determining FRET (Förster resonance energy transfer) interactions of NBD C12 (17) with amino acid Trp214 of HSA, concentrations of a dye-HSA mixture according to Table 8 were applied in an amount of 250 μl for each case.
100 μl of mixture 7 were pipetted into a 96 well microplate and a wavelength scan for the absorption in the range from 250 nm to 700 nm was carried out. In each case 15 μl of the residual solutions 1 to 6 were pipetted four times into a black 384 well microplate and emission spectra of the solution in the range from 270 nm to 700 nm were recorded at 290 nm excitation wavelength of the Trp.
For dye NBD C12 (17) the FRET effect between the tryptophan of the HSA and the dye itself was investigated more precisely. The emission spectrum of the amino acid tryptophan overlapped with the absorption spectrum of the NBD dye, because the energy of the donor to be transferred must lie in the region of the possible energy absorption of the acceptor. This is the case when the two spectra overlap. For measurement, both solutions were employed in identical concentrations (25 μM) and the units of the fluorescence intensities (FIrel) and the absorption strength (ODrel) were standardized. An excitation wavelength of 290 nm was utilized for the emission spectrum of tryptophan.
In the next step, different concentrations of NBD C12 (17) were added to the HSA solution until a ratio of NBD to HSA of 1:1 was reached, and the emission spectra were measured.
The efficiency of the energy transfer occurring was calculated using the equation 3.4.
The distance R0, at which a 50% energy exchange takes place, was calculated according to the following equation. Furthermore, by transformation of said equation the real distance r of donor and acceptor was determined.
The fluorescence quantum yield for tryptophan is 0.15.

[5] = target: T1, HSA; test: Displacement of NBD derivatives on HSA by natural fatty acids C6 to C16 (fluorescence); assay type: binding; conditions: ranking among NBD C8, C10 and C12 from the competition experiments
Procedure: Dilution series for competition experiments with the fatty acids C6 to C16 were diluted with phosphate-buffered saline solution (DPBS buffer). Geometric dilution series of each fatty acid were prepared in 384 well microplates with a starting concentration of 2500 μM and a dilution factor of 0.33 and also 9 dilution steps. The final volume of each concentration was 80 μl. The plated-out fatty acids were stored in the deep freeze (−25° C.) until use.
For displacement experiments 2.50 ml of a 25 μM HSA solution were used per dye derivative. Due to the subsequent dilution steps the HSA concentration was doubled twice such that 2.50 ml of […] solution were prepared.
The dye concentrations were also doubled twice by the following dilution steps. 2.50 ml of each dye solution were needed. 2.10 ml of the respective dye solution were then mixed with 2.10 ml of the 100 μM HSA solution. The respective concentrations of the solutions halve here once. 50 μl of the mixture per well were introduced into a 96 well microplate.
The fatty acid microplates were brought to room temperature and 50 μl each of the dilution series were pipetted into the HSA-dye mixture. The concentrations of all solution constituents were thereby halved once again. In analogy to the experiments measuring the fluorescence of the fluorescence-labelled derivatives without HSA above, the solutions were pipetted from the 96 well microplate into a 384 well microplate. Absorption was not measured. The fluorescence measurement without a wavelength scan was carried out in analogy to the above-referenced experiment.
A concentration of 25 μM and a binding ratio of the NBD derivatives to HSA of 1:1 were employed for the displacement studies. For each dye derivative an NBD-HSA mixture with a concentration of 25 μM was prepared.

[6] = target: T1, HSA; test: Job plot of the fluorescence: stoichiometry of labelled fatty acids to HSA; assay type: binding; conditions: maximum in the curve or none
Procedure: The stoichiometry of NBD- and dansyl-labelled fatty acids bound to HSA was determined by Job plots, also called the “method of continuous variability” as different mole fractions of the respective binding partners are mixed with one another and then measured spectroscopically. Solutions of equimolar concentrations of HSA and dye were mixed such that the mole fractions of the substances were varied but the total molarity of the sample solution stayed constant. For short NBD derivatives C2 to C6 (12-14) no binding to HSA was confirmed, whereas binding ratios for long NBD derivatives C8 to C12 (15-17) to HSA were 1:1. For short dansyl derivatives C2 to C8 (19-22) binding ratios for HSA were 2:1, whereas the long dansyl derivatives C10 and C12 (23-24) bound to HSA in the ratio of 4:1. The finding that even dansyl C2 (19) was bound to HSA led to the question as to what extent the dansyl label itself is recognized by HSA. Because even dansyl methylamide (25) bound to HSA, even though it lacks a carboxyl group, it seems that the dye label could also bind to HSA.
For the Job plot the dye and HSA solutions were employed in equimolar amounts. 10.00 ml of 100 μM HSA solution and in each case 2.00 ml of a 100 μM dye solution (12-17; 19-25) were prepared from the above stock solutions. For the Job plot method the dye solutions were mixed with the HSA solution in different ratios as described below in Table 8. […] According to the same dilution scheme the dye solutions were also mixed with DPBS buffer for measuring the blank values of the fluorescence-labelled derivatives (see K. C. Ingham, Analytical Biochemistry 68 (1975) 660-663). […] Absorption was not measured. A fluorescence measurement without a wavelength scan was also carried out in analogy to the above experiment without HSA.
For NBD derivatives (12-17) and HSA 100 μM solutions were used. […] In total 11 solutions per dye derivative were prepared for fluorescence measurement by mixing the two binding partners. […] The fluorescence intensities were plotted against the mole fractions of the binding partners. […]

[7] = HSA 25 μM, NBD to HSA up to 1:1, excitation 290 nm

T1 sequence (P02768 25-609): as above

| SMILES | binding site on HSA [1] | Δλ, shift of emission maximum λem without HSA vs with HSA ([2]; NBD compound 25 μM, λex = 480 nm) [nm] | change in fluorescence intensity with increasing HSA concentration ([2]; NBD derivatives 25 μM, HSA 1.56 to 200 μM, 480-550 nm, pH 7.4) | chromatographic logD [3] | log D7.4 [3] | fluorescence of the dye on excitation of tryptophan [4, 7] [FI] | tryptophan emission intensity of HSA after addition of the dye [4, 7] [FI] | tryptophan emission intensity of HSA after addition of the dye ([4]; HSA 25 μM, NBD to HSA up to 1:1, excitation 290 nm, listed as NBD dye C12 (17)) [FI] | efficiency of the energy transfer ([4]; calculated from I 82 FI and I0 171 FI) | relative binding affinity of the NBD dye for HSA [5] | Δλ, shift of emission maximum λem without HSA vs with HSA ([2]; dansyl compound 100 μM, λex = 330 nm) [nm] | binding to HSA (qualitative) [6] |
| --- | --- | --- | --- | --- | --- | --- | --- | --- | --- | --- | --- | --- |
| O=C(O)CCCCCCCCCCCNc1ccc([N+](=O)[O-])c2nonc12 [NBD C12 (17), 12-(7-Nitrobenzo[1,2,5]oxadiazol-4-ylamino)dodecanoic acid] | neither bound the Sudlow's site I nor the Sudlow's site II | 16 | increase in fluorescence intensity | 2.84 | 2.84 | 15 | 82 | 80 | approximately 52% | greatest binding affinity; also recorded: bounds best | – | – |
| CN(C)c1cccc2c(S(=O)(=O)NCC(=O)O)cccc12 [dansyl C2 (19), (5-Dimethylaminonaphthalene-1-sulfonylamino)ethanoic acid] | – | – | – | 1.02 | – | – | – | – | – | – | 94 | bound to HSA |

Source: patent publication US20150285812A1, “Fluorescence-Labelled Fatty Acids and Uses Thereof” (SANOFI, priority 2012, published 2015)
